Experimental data as given in article PMC3109722 (Journal of medicinal chemistry, 2011).
“Also recorded” adds a separate entry of the source. Blank lines part the entries; values can stand above or below the compound they belong to.

Tests used:
[1] = target: T1, L3MBTL3 (Homo sapiens, UniProt Q96JM7); assay: AlphaScreen histone peptide competition, L3MBTL3; assay type: binding; conditions: average of at least two independent trials ± SD
T1 sequence (Q96JM7 225-555 limits assumed): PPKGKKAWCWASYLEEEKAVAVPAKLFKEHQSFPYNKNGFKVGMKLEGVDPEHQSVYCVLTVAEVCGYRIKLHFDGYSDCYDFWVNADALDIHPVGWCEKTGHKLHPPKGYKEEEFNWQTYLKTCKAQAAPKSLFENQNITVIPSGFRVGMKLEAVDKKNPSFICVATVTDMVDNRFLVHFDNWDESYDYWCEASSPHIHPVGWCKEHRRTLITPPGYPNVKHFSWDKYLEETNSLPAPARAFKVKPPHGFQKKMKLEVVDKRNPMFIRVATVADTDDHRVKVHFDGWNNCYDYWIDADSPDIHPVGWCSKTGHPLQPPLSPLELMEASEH

[2] = target: T2, PHF13 (Homo sapiens, UniProt Q86YI8); assay: AlphaScreen histone peptide competition, PHF13; assay type: binding; conditions: average of at least two independent trials ± SD
T2 sequence (Q86YI8 232-280 limits assumed): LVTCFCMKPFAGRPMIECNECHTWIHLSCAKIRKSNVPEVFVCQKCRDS

[3] = target: T1, L3MBTL3; assay: ITC binding to L3MBTL3; conditions: data not shown
[4] = target: T3, L3MBTL1 (Homo sapiens, UniProt Q9Y468); assay: AlphaScreen histone peptide competition, L3MBTL1; conditions: sulfonamide series; footnote a of Table 2: no binding by AlphaScreen
T3 sequence (Q9Y468 200-522 isoform Q9Y468-1 limits assumed): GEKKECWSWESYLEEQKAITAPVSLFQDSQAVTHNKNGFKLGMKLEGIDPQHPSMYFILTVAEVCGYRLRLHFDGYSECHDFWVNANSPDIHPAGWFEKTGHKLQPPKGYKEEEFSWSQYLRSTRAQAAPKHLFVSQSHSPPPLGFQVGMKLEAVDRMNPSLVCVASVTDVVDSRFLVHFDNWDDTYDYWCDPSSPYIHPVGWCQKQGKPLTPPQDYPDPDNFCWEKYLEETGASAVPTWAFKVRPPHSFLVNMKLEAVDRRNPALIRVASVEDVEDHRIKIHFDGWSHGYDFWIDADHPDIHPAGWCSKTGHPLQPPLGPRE

[5] = target: T3, L3MBTL1; assay: ITC binding to wt L3MBTL1; conditions: single experiments, standard deviations from least square curve fitting

L3MBTL3 IC50 [1]: weak binding
PHF13 IC50 [2]: weak binding
Binding to L3MBTL3 by ITC [3]: Binding was confirmed
SMILES: O=C(NCCCCCN1CCCC1)c1cncc(Br)c1 [Compound 7]

SMILES: O=S(=O)(NCCOCCN1CCCC1)c1cccc(Br)c1 [Compound 8]
Binding by AlphaScreen [4]: did not show any activity; also recorded: No Binding ^a

SMILES: O=S(=O)(NCCCCCN1CCOCC1)c1cccc(Br)c1 [Compound 9]
Binding by AlphaScreen [4]: did not show any activity; also recorded: No Binding ^a

3MBTL1 Kd [5]: No Binding Interaction
SMILES: C[C@H]1CCN(CCCCCNS(=O)(=O)c2cccc(Br)c2)C1 [Compound 12]
